Assay type in all cases: binding
Assay [1] deals with T1, hDGKa C1 domain cysteines (Homo sapiens, UniProt P23743).
T1 construct: expressed in transfected cells; host or cells: HEK293T
Description: JWB003 labeling competition in vitro. The method, then:
• 1. HEK293T cells were harvested in cold PBS. • a. Cells were transferred to Eppendorf tube. • 2. Cells were lysed via tip sonicator. • 3. Cells were fractionated into membrane and soluble fraction. • a. 100,000×G for 45 minutes at 4 degree. • b. Supernatant was separated from cell pellet. • 4. Dilute proteomes to 1 mg/mL in PBS and aliquot appropriate reaction volume (49 μL for probe only; 48 μL for competition+probe) • 5. Cells were treated with 50× inhibitor. • a. Incubated for 1Hr at 37 degree. • 6. Cells were treated with 50× Probe (JWB003). • a. Incubated for 1Hr at 37 degree. • 7. Add 6 μL of master mix to each alkyne probe-labeled sample. • a. 1 μL of 1.25 mM Rh-N3 • b. 1 μL of fresh 50 mM TCEP • c. 3 μL of 1.7 mM TBTA stock • d. 1 μL of 50 mM CuSO4 • 8. Vortex samples. • 9. Incubate at room temperature for 1 hr • 10. Quench with 17 μL of 4×SDS-PAGE loading buffer+βME and vortex tubes. • 11. Analyze 30 μL samples by SDS-PAGE immediately. [B] Labeling HEK293T Cells to Determine Target Proteins of JWB003 in Live Cells (In Situ) • 1. Complete media was removed from HEK293T cells and replaced with serum free media containing JWB003 at the appropriate final concentration • a. Cells were placed in incubator for appropriate time at 37 degree 5% CO2 • 2. Cells were washed • a. 2× warm PBS • b. 2× cold PBS • c. Harvest cells in cold PBS • 3. Cells were transferred to Eppendorf tube • 4. Cells were lysed via tip sonicator • 5. Cells were fractionated into membrane and soluble fraction • a. 100,000×G for 45 minutes at 4 degrees • b. Supernatant was separated from cell pellet. • 6. Dilute proteomes to 1 mg/mL and aliquot appropriate reaction volume (50 μL) • 7. Add 6 μL of master mix to each alkyne probe-labeled sample. • a. 1 μL of 1.25 mM Rh-N3 • b. 1 μL of fresh 50 mM TCEP • c. 3 μL of 1.7 mM TBTA stock • d. 1 μL of 50 mM CuSO4 • 8. Vortex samples. • 9. Incubate at room temperature for 1 hr. • 10. Quench with 17 μL of 4×SDS-PAGE loading buffer+βME and vortex tubes. • 11. Analyze 30 μL samples by SDS-PAGE immediately. [C] […]

In a further assay the target is T2, recombinant DGKα (Rattus norvegicus, UniProt P51556).
T2 construct: expressed in transfected cells; host or cells: HEK293T (SILAC HEK293T for LC-MS)
T2 sequence (P51556 whole entry): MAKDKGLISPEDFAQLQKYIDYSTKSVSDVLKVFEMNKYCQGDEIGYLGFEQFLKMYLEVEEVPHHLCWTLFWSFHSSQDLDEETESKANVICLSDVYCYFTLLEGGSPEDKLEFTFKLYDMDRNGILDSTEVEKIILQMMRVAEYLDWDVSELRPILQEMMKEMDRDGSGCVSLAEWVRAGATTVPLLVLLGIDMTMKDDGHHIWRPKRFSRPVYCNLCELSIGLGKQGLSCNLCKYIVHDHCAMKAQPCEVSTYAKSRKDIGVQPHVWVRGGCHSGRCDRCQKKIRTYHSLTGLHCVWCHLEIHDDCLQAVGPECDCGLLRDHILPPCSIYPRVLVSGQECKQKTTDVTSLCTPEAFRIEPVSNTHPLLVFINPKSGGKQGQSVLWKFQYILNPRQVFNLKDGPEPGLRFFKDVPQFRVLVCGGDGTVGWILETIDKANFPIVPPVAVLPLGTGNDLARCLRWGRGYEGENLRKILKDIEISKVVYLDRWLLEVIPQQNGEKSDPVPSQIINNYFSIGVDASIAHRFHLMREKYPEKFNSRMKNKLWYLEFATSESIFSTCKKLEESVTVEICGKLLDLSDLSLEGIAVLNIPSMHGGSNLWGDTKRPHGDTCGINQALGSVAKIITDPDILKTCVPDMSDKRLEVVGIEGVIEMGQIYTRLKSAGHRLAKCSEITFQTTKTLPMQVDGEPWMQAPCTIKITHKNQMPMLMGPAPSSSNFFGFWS
In words: Gel-based ATP acyl phosphate chemical proteomic assay. The following applies: compounds 100 μM (ATP 1 mM; RF001 at indicated concentrations), 30 min; probe 10 μM. The method, then:
Cell pellets were resuspended in kinase buffer (Dulbecco's PBS (DPBS, Hyclone), 20 mM MgCl2, EDTA-free protease inhibitors (Pierce)) and then lysed by sonication (3×1 sec pulse, 20% amplitude). The cell lysates were then subjected to centrifugation (100,000×g, 45 min at 4° C.) to isolate the cytosolic fraction in the supernatant and the membrane fraction as a pellet. The membrane pellet was resuspended in kinase buffer by sonication. […] The only exception was experiments involving DGKE; recombinant DGKE protein was most prominently expressed in the membrane fraction and so this fraction was utilized to study DGKE enzyme (see FIG. 8). Protein concentrations were measured using the Bio-Rad DC protein assay. Samples were stored at −80° C. until use.
Proteome concentration was adjusted to 2 mg/mL in kinase buffer. Proteomes were first pre-treated with compound (0.6 μL, 50× stock in DMSO) mixed with gentle flicking, and incubated for 30 min at 25° C. in a microfuge tube (30 μL reaction volume). […] Reactions were then quenched with 10 AL of 4×SDS-PAGE loading buffer. Protein samples (15 μL) were loaded onto 4-20% TGX Stain-Free Protein Midi Gel and resolved by SDS-PAGE at 150V for 55 min. Proteins were then transferred to a nitrocellulose blot by Bio-Rad Trans-Blot Turbo Transfer System (25V. 10 min) to enhance sensitivity. The nitrocellulose blot was then incubated in blocking solution (30 mL, 3% BSA in TBS-T) for 1 h at 25° C. with gentle shaking. The blot was then transferred immediately to antibody solution (30 mL, 5% BSA in ddH2O with 0.1% Tween20 and 1:3000 Streptavidin DyLight 550) and incubated for 2 h at 25° C. with gentle shaking. The blot was then rinsed 5 times for 5 min in TBS-T. and then transferred into ddH2O. The blot was then imaged by in-blot fluorescence scanning on a ChemiDoc MP Imaging System. Fluorescence intensity signals were normalized to total lane protein using the Bio-rad Stain Free imaging (Posch et al., 2013).
The percentage of enzyme activity remaining was determined by comparing integrated band intensities or luminescence of inhibitor—with DMSO-treated samples for gel-based chemical proteomic or ADP-glo assays, respectively. For both chemical proteomic and ADP-glo methods, nonlinear regression analysis was used to determine the IC50 values from a dose-response curve generated using GraphPad Prism. Data are shown as mean±s.e.m. Determination of significance was performed by one-way ANOVA. All statistical analyses were performed using GraphPad Prism.

Assay [2] has as its target T3, DGKA (Diacylglycerol kinase alpha) (Rattus norvegicus, UniProt P51556).
T3 construct: expressed in transfected cells; host or cells: HEK293T (SILAC HEK293T for LC-MS)
In words: SILAC LC-MS ATP acyl phosphate probe competition, recombinant DGK-HEK293T lysates. On the procedure: All other vectors were gifted to Dr. Kevin Lynch (University of Virginia, School of Medicine) by Dr. Kaoru Goto (Yamagata University, School of Medicine) and Dr. Fumio Sakane (Chiba University) and were kindly shared with us: pcDNA3-FLAG-DGKA (rat), pCMV-Tag2B-FLAG-DGKQ (human), pcDNA3-DGKE-3×Flag (human), and pCMV-SPORT6-HA-DGKZ (human). HEK293T cells were plated at a concentration of 400,000 cells in complete DMEM and grown to 50-60% confluency. A polyethyleneimine (PEI) stock solution was prepared (1 mg/mL, pH 7.4) and filter sterilized. Serum-free DMEM (600 μL) was mixed gently with 2.6 μg DNA and 20 μL of sterile PEI (1 mg/mL, pH 7.4) in a sterile microfuge tube. Mixtures were incubated for 30 min at 25° C. The mixture was then added drop-wise to each 10 cm^2 plate, rocked back and forth to mix, and placed back in the incubator. Cell pellets were harvested after two full days of growth, snap-frozen in liquid N2, and stored at −80° C. until use. Recombinant proteins were produced by transient transfection in SILAC HEK293T cells using the procedure described above, except that cells were plated at a concentration of 1×10^6 cells per 10 cm^2 plate and grown to ˜70% confluency prior to introducing transfection mixture.
Proteomes were diluted to 2 mg/ml in kinase buffer. The light and heavy proteomes (0.5 mg, 250 μL total reaction volume) were pre-treated with vehicle or compound, respectively (5 μL, DMSO (light) or 50× stock in DMSO (heavy)), mixed gently, and incubated at 25° C. for 30 min. […] After incubation, matched light and heavy proteomes were transferred and mixed in a 1:1 ratio in a two-dram vial containing 4:1:3 MeOH/CHCl3/H2O (2 mL MeOH, 500 AL CHCl3, 1.5 mL H2O) for extraction of proteins to remove excess probe, quickly vortexed, and centrifuged at 1,400×g for 3 min to pellet protein. Organic and aqueous layers were removed using a Pasteur pipette, and the protein pellet was transferred to a screw-top tube in 600 μL MeOH. A second extraction was performed by adding CHCl3 (150 μL) and H2O (600 μL) to each sample, vortexed, and centrifuged at 1,400×g for 3 min to pellet protein. Organic and aqueous layers were removed by pipetting. MeOH added to pellet (600 μL) and pellets were re-suspended by sonication (3×1 sec pulse, 20% amplitude) for a final extraction. Samples were then centrifuged at 17,000×g for 5 min to pellet protein and MeOH was removed by pipetting. […] To desalt the samples, each was transferred to a two-dram glass vial, and to the vial 4:1:2 MeOH/CHCl3/H2O (2 mL MeOH, 500 AL CHCl3, 1 mL H2O) was added. The vials were vortexed quickly, spun at 1.400×g for 3 min to pellet protein, and aqueous and organic layers were removed using a Pasteur pipette. The resulting protein pellet was transferred to a screw-top tube in 600 μL MeOH, and then CHCl3 (150 μL) and HO (600 μL) were added to extract protein a second time. The samples were vortexed quickly, centrifuged at 1,400×g to pellet protein, and the aqueous and organic layers were removed by pipetting. Resulting protein pellet was suspended in MeOH (600 μL) via sonication (3×1 sec pulse, 20% amplitude), centrifuged at 17,000×g for 5 min to pellet protein, and MeOH removed by pipetting. Protein pellets were then re-suspended in 25 mM ammonium bicarbonate (500 μL) and digested with 7.5 μg Trypsin/Lys-C(Promega, 15 μL, 0.5 μg/μL) for 3 h at 37° C. Avidin-agarose beads (Thermo Scientific Pierce, 100 AL aliquot per sample) were washed three times by adding 10 mL DPBS, centrifuged at 1,400×g for 1 min, and decanting. This wash step was repeated for a total of 3 times. Digested protein samples were mixed with washed avidin beads (100 μL) and brought to a volume of 5.5 mL with DPBS in a 15 mL conical and rotated for 1 h to enrich samples for the covalent desthiobiotin modification. The beads were washed with 25 mM ammonium bicarbonate (3× with 10 mL, centrifuge at 1,400×g for 3 min, decant) and then H2O (3× with 10 mL, centrifuge at 1,400×g for 3 min, decant).

Usually inhibition stands for the relative decrease from the control value, in per cent.

T1 sequence (P23743 whole entry, the tested form may be a part): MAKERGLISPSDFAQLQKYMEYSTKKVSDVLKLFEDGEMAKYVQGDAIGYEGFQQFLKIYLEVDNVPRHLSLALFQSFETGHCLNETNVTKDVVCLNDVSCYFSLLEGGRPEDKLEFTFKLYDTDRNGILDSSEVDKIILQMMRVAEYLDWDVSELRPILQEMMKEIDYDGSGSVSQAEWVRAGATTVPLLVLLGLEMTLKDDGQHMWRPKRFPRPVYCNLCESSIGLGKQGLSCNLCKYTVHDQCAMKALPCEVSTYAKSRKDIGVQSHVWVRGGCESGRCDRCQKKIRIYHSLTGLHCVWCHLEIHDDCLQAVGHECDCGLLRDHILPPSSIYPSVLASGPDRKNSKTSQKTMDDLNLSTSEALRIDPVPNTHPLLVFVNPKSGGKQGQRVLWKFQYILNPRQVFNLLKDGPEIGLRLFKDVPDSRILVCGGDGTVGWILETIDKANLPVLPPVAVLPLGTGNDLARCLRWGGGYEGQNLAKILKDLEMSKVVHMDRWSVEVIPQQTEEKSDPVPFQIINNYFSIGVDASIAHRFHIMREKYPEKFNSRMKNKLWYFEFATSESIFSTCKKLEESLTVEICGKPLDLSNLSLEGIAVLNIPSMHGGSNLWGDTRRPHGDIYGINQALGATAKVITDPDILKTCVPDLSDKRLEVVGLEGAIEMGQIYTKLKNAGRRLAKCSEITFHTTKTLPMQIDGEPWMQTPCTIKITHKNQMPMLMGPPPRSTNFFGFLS
T3 sequence (P51556 whole entry): as the sequence (P51556 whole entry) above

Consider `CCCCCCCCCCCCCC(=O)O[C@@H]1[C@@H](C)[C@@]2(O)[C@@H](C=C(CO)C[C@]3(O)C(=O)C(C)=C[C@@H]23)[C@@H]2C(C)(C)[C@]12OC(C)=O` [PMA], for which, in assay [1], the “inhibition of JWB003 probe labeling of hDGKa” value was “Probe labeling is inhibited”.
The same measure, in the same setting: as for `NC(=O)CI` [iodoacetamide], the entry is “labeling is inhibited”.
For `Nc1ncnc2c1ncn2[C@@H]1O[C@H](COP(=O)(O)OP(=O)(O)OP(=O)(O)O)[C@@H](O)[C@H]1O` [ATP, adenosine triphosphate], the “blockade of DGKα ATP probe labeling” value on recombinant DGKα is recorded as “global reductions in fluorescent protein signals”. Besides, the “competition at probe-modified peptides from DAGKc and DAGKa subdomains of DGKα” value in assay [2] (ATP 1 mM) is on record as ~94%. Moreover, the inhibition at 1000 µM in assay [2] (read-out: inhibition of probe labeling at DGKα C1 site (K237)) is ~58%.

Source of the values: patent US12643867B2, “Compositions and uses thereof” (University of Virginia Patent Foundation, priority 2017, dated 2026).
